The target in assay [1] is T1, Muscarinic acetylcholine receptor M2 (Homo sapiens, UniProt P08172).
T1 sequence (P08172 whole entry): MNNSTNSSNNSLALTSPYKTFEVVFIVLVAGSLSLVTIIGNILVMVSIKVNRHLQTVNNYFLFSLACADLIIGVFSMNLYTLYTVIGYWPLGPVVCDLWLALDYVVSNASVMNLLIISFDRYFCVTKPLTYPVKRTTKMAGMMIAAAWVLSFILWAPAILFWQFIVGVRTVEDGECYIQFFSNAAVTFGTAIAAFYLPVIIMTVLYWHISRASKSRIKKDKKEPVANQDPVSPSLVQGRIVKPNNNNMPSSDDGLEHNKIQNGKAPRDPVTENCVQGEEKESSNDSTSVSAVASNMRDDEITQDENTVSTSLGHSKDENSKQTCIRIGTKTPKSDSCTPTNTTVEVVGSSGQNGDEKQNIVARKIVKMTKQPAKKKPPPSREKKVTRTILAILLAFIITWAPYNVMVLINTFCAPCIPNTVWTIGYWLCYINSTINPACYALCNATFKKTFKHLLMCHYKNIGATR

Assay [2] deals with cGMP-inhibited 3',5'-cyclic phosphodiesterase 3A (Homo sapiens, UniProt Q14432). The format is functional.
Chain of cGMP-inhibited 3',5'-cyclic phosphodiesterase 3A (Q14432 whole entry): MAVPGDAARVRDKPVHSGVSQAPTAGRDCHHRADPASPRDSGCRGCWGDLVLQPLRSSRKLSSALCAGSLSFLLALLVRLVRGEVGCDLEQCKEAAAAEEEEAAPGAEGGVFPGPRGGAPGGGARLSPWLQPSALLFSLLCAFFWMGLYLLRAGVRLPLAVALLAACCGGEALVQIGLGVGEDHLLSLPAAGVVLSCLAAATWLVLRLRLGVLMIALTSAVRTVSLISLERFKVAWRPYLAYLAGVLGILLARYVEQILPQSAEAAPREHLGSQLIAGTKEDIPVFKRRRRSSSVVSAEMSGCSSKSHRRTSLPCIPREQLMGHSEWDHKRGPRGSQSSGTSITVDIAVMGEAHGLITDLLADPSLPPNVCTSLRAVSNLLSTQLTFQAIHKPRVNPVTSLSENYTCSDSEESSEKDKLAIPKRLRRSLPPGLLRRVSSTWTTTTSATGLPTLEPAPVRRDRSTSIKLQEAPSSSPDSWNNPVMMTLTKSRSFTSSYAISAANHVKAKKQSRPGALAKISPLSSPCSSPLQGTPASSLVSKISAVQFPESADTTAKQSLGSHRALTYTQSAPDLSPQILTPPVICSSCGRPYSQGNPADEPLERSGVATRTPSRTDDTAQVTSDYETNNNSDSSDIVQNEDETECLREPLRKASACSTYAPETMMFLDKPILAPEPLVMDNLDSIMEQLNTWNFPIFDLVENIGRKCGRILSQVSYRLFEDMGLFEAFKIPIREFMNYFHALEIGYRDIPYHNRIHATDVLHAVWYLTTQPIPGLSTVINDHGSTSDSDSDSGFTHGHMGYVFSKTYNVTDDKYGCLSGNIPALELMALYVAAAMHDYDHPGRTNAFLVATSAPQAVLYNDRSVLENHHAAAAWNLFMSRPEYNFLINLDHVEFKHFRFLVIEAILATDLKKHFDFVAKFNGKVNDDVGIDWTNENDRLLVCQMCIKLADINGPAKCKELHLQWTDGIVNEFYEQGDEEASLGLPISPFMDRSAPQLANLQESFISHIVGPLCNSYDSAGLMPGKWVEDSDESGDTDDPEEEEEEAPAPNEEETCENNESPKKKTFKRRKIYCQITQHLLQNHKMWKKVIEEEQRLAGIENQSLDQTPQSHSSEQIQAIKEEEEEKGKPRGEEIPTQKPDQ
Assay [3] has as its target 3',5'-cyclic-AMP phosphodiesterase 4A (Homo sapiens, UniProt P27815). The format is functional.
The target in assay [4] is T2, Thromboxane A2 receptor (Homo sapiens, UniProt P21731).
T2 sequence (P21731 whole entry): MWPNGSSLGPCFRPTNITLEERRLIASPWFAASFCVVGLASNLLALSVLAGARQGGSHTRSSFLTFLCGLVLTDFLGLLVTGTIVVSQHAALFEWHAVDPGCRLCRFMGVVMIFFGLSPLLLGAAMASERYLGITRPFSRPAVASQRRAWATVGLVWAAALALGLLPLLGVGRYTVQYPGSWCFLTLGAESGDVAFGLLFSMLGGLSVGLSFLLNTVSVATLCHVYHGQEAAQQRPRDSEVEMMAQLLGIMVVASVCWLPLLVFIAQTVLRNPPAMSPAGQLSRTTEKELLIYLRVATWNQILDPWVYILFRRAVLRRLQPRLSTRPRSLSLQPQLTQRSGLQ
The format is functional, cell-based.

Assay [5] addresses T3, Alpha-1A adrenergic receptor (Homo sapiens, UniProt P35348).
T3 sequence (P35348 whole entry): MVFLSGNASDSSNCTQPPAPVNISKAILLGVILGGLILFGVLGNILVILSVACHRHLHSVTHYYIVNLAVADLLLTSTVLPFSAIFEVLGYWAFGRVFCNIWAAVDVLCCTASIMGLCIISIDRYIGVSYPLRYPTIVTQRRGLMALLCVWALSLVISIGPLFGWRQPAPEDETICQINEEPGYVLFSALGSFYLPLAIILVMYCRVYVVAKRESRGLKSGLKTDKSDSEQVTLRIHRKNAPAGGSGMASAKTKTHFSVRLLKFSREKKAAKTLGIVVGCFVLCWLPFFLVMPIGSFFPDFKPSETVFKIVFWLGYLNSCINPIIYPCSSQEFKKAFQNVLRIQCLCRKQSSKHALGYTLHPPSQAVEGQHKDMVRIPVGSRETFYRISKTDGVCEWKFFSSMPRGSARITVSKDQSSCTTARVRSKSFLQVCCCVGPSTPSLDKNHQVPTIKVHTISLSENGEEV
The assay is classed as functional, cell-based.

Assay [6] addresses Histamine H3 receptor (Homo sapiens, UniProt Q9Y5N1).
For assay [7], the target named is D(1A) dopamine receptor (Homo sapiens, UniProt P21728).
Chain of D(1A) dopamine receptor (P21728 whole entry): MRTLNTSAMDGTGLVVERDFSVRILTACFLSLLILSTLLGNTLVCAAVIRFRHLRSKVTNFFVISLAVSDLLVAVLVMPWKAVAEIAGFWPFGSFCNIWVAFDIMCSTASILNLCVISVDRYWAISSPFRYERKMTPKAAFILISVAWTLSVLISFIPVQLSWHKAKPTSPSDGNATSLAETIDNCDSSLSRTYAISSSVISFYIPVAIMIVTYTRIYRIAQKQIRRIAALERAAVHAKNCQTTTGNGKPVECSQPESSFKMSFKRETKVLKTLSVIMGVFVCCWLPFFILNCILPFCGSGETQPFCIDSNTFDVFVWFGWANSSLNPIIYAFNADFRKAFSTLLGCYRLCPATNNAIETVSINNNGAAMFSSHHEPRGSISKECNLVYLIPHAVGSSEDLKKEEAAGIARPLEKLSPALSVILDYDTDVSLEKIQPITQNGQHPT
For assay [8], the target named is D(3) dopamine receptor (Homo sapiens, UniProt P35462).
In assay [9] the target is T4, Prostaglandin G/H synthase 1 (Homo sapiens, UniProt P23219). The format is functional.
T4 sequence (P23219 whole entry): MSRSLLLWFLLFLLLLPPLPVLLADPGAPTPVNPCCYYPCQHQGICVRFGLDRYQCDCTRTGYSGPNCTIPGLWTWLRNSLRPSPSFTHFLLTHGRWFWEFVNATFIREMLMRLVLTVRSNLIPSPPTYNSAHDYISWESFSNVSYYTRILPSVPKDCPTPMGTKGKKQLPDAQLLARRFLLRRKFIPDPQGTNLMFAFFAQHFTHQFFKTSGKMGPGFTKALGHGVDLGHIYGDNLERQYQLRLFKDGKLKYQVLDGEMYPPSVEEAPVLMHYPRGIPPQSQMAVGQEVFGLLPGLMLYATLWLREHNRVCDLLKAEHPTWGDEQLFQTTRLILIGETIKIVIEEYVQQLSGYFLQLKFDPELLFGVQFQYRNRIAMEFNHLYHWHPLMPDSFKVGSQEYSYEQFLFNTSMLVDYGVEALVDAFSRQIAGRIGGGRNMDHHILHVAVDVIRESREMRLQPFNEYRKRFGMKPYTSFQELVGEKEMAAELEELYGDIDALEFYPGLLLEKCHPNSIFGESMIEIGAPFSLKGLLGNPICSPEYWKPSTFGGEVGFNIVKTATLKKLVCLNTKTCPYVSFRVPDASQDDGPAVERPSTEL
The target of assay [10] is Acetylcholinesterase (Homo sapiens, UniProt P22303). The format is functional.
Chain of Acetylcholinesterase (P22303 whole entry): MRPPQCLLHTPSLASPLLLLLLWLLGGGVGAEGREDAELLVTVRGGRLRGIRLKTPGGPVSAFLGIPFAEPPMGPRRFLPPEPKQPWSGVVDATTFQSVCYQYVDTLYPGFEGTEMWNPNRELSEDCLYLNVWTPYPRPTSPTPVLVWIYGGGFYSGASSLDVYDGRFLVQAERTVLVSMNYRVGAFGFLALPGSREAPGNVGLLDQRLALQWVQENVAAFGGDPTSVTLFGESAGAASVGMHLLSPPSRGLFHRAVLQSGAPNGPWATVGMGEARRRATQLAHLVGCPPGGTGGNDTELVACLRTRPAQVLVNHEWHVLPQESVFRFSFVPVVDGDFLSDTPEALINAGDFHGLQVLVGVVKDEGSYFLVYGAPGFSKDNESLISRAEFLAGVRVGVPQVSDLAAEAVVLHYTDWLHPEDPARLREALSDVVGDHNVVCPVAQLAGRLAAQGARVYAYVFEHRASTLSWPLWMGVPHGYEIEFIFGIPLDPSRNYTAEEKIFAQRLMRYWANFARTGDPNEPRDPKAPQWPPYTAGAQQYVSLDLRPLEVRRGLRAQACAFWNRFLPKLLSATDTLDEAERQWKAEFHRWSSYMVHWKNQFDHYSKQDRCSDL
Assay [11] deals with T5, 5-hydroxytryptamine receptor 1A (Homo sapiens, UniProt P08908).
T5 sequence (P08908 whole entry): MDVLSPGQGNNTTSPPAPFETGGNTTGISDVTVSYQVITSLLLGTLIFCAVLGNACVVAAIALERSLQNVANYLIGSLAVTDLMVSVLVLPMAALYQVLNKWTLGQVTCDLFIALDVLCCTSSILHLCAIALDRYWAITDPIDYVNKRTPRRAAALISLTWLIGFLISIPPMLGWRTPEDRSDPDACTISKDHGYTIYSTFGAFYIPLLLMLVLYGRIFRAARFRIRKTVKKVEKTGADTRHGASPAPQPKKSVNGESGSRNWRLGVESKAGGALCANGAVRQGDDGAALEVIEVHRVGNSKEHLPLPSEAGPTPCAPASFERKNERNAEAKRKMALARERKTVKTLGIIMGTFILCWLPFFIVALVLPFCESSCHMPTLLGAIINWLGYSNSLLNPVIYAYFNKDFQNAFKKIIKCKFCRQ

Assay [12] concerns the target Sodium-dependent noradrenaline transporter (Homo sapiens, UniProt P23975).
In assay [13] the target is T6, Amine oxidase [flavin-containing] A (Homo sapiens, UniProt P21397).
T6 sequence (P21397 whole entry): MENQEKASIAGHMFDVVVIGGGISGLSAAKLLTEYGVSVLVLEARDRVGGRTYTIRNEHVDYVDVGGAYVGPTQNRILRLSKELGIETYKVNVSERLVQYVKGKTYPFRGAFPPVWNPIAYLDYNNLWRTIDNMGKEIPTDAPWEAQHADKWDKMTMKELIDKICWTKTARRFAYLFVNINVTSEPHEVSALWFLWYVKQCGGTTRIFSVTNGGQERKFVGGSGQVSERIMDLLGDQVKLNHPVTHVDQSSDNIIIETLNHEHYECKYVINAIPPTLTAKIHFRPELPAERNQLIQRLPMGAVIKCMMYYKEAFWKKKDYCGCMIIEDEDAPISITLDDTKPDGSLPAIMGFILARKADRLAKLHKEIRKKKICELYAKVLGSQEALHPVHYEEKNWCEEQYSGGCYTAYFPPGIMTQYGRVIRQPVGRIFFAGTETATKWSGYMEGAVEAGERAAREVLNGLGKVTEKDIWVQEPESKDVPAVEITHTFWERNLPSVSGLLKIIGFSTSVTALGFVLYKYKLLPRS
The assay is classed as functional.

The target in assay [14] is Sodium-dependent dopamine transporter (Homo sapiens, UniProt Q01959).
Chain of Sodium-dependent dopamine transporter (Q01959 whole entry): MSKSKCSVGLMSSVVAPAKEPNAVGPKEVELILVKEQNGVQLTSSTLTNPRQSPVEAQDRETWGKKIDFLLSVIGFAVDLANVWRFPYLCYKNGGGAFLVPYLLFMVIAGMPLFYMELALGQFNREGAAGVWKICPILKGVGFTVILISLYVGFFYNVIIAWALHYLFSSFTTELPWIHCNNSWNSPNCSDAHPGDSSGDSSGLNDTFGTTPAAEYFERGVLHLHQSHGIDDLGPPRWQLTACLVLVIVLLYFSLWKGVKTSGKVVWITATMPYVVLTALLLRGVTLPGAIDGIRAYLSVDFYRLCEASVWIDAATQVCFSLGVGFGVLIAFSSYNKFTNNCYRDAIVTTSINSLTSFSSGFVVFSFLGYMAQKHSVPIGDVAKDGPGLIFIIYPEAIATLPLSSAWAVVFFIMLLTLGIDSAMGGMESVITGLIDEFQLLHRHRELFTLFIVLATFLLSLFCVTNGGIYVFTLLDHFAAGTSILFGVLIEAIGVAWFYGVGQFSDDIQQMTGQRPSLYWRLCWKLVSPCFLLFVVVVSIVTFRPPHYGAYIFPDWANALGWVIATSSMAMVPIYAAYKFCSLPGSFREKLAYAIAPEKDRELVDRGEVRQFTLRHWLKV
Assay [15] addresses Prothrombin (Homo sapiens, UniProt P00734). The assay is classed as functional.
The target in assay [16] is T4, Prostaglandin G/H synthase 1. The assay is classed as functional. The source holds these as a separate data set.

Each structure is given as a SMILES string.
Further: assay procedure not described here.

Chain of Histamine H3 receptor (Q9Y5N1 whole entry): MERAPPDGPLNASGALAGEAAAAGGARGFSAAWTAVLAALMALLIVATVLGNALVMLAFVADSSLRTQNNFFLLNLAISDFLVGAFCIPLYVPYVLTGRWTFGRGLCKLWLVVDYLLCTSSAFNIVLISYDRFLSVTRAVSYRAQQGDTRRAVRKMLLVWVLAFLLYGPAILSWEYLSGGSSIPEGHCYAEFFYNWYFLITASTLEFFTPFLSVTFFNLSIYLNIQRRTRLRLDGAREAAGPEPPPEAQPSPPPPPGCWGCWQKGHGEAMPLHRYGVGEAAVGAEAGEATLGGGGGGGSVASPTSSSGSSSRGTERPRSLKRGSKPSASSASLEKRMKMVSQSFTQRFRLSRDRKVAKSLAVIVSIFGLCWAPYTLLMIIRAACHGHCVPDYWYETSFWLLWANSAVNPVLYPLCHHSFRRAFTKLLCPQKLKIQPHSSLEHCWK
Chain of 3',5'-cyclic-AMP phosphodiesterase 4A (P27815 whole entry): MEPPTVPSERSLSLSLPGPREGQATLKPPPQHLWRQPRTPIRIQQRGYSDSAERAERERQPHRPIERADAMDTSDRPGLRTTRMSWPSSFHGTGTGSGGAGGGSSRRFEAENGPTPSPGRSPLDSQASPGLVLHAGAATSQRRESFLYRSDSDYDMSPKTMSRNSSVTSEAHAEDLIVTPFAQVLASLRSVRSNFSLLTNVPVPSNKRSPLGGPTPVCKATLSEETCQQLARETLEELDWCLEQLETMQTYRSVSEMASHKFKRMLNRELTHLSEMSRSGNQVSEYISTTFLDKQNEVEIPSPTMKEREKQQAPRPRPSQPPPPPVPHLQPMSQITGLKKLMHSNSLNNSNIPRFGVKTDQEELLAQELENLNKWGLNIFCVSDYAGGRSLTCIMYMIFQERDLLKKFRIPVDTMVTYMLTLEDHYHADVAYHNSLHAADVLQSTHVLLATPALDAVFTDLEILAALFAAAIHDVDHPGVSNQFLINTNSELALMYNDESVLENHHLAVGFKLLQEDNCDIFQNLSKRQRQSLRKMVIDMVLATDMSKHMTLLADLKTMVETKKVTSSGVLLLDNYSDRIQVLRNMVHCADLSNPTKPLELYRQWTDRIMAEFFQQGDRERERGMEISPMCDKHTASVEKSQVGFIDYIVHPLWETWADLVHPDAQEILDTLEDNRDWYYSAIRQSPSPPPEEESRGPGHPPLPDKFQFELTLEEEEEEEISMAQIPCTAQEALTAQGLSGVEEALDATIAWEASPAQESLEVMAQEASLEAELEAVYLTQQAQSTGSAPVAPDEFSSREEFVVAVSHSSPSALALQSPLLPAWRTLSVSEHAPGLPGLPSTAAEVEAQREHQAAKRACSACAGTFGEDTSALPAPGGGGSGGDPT

In the case of `CCCc1nc2c(C)cc(-c3nc4ccccc4n3C)cc2n1Cc1ccc(-c2ccccc2C(=O)O)cc1`, the AC50 – broadly, the concentration giving half of the maximal activity seen – in [1] is above 30 µM; in [2] it was 29.9 µM; in assay [3], 13.5 µM; in assay [4], above 1 µM; in [5], 9.55 µM; in assay [6] it was above 30 µM. Further, the AC50 in assay [7], in assay [8], in [9], in assay [10], in assay [11] and in assay [12] was above 30 µM in each case. Further, the AC50 in assay [13], in [14], in assay [15] and in [16] was above 30 µM each time.

For `CC[C@@H]1C[C@]1(NC(=O)[C@@H]1C[C@@H]2CN1C(=O)[C@H](C(C)(C)C)NC(=O)OCC(C)(C)CCCCc1cccc3c1CN(C3)C(=O)O2)C(=O)NS(=O)(=O)C1CC1`, the AC50 is above 30 µM in assay [1]; above 30 µM in assay [2]; above 30 µM in [3]; above 3 µM in assay [4]; 29.7 µM in assay [5]; above 30 µM in [6]. The AC50 in assay [7], in assay [8], in assay [9], in assay [10], in [11] and in assay [12] was above 30 µM in each case. For the same compound, the AC50 in assay [13] was above 30 µM; in assay [14], above 30 µM; in assay [15] it was above 30 µM; in assay [16], 26.8 µM.

As for `CC(=O)NO` [ACETOHYDROXAMIC ACID], the AC50 in assay [1], in assay [2], in assay [3], in [4], in assay [5] and in assay [6] was above 30 µM each time. Also, the AC50 in assay [7], in assay [8], in assay [9], in assay [10], in assay [11] and in assay [12] was above 30 µM each time. Besides, the AC50 was above 30 µM in assay [13], above 30 µM in [14], above 30 µM in assay [15] and 21.5 µM in assay [16].

Consider `CC(=O)NCCCCCC(=O)O` [ACEXAMIC ACID], for which the AC50 in assay [1] was above 30 µM; in assay [2] it was above 30 µM; in assay [3], above 30 µM; in assay [4], above 30 µM; in [5], 18.9 µM; in assay [6] it was above 30 µM. Further, the AC50 in assay [7], in assay [8], in assay [9], in assay [10], in assay [11] and in assay [12] was above 30 µM in each case. Further, the AC50 in [13], in assay [14], in assay [15] and in assay [16] was above 30 µM each time.

Consider `C=C(C)CNc1ccc(C(C)C(=O)O)cc1` (centres undefined) [ALMINOPROFEN], for which the AC50 in assay [1], in assay [2], in assay [3], in [4], in assay [5] and in [6] was above 30 µM each time. Also, the AC50 in assay [7], in [8], in assay [9], in assay [10], in assay [11] and in [12] was above 30 µM in each case. The AC50 in assay [13], in [14], in [15] and in assay [16] was above 30 µM each time.

`Cc1cc(C2CCCCC2)n(O)c(=O)c1` [CICLOPIROX]: the AC50 in assay [1] was above 30 µM; in assay [2], above 30 µM; in assay [3] it was above 30 µM; in [5] it was 23.1 µM; in [6] it was above 30 µM; in [7], above 30 µM. Further, the AC50 in assay [8], in [9], in assay [10], in assay [11], in assay [12] and in assay [13] was above 30 µM throughout. The AC50 in [14], in assay [15] and in assay [16] was above 30 µM each time.

Regarding `C[N+]1(C)CCCC(OC(=O)C(O)(c2ccccc2)c2ccccc2)C1` (centres undefined) [MEPENZOLATE], the half-maximal activity concentration (AC50) in assay [2], in assay [3], in assay [4], in [5], in assay [6] and in [7] was above 30 µM each time. Moreover, the AC50 in assay [8], in assay [9], in assay [10], in assay [11], in [12] and in [13] was above 30 µM each time. The AC50 in assay [14], in assay [15] and in assay [16] was above 30 µM in each case.

Consider `O=C1Cc2cc(CCN3CCN(c4nsc5ccccc45)CC3)c(Cl)cc2N1` [ZIPRASIDONE], for which the AC50 was 7.14 µM in assay [1]; above 30 µM in assay [2]; above 30 µM in assay [3]; above 30 µM in [4]; above 30 µM in [5]; above 30 µM in assay [6]. The concentration at half-maximal activity (AC50) in [9] was above 30 µM; in assay [10], above 30 µM; in assay [11], 0.003 µM; in assay [12] it was 0.507 µM; in assay [13], above 30 µM; in assay [14], 0.0875 µM. Moreover, the AC50 in [15] and in [16] was above 30 µM each time.

The values are drawn from ChEMBL document CHEMBL5291721, “A preclinical secondary pharmacology resource illuminates target-adverse drug reaction associations of marketed drugs” (Nat Commun, 2023).
